From patent US20220380309A1, “CHOLINE METABOLISM INHIBITORS” (President and Fellows of Harvard College, priority 2018, published 2022) come the findings set out here.

Like-named read-outs stand apart in the source and are kept apart here.

One assay has as its system E. coli MS 200-1. Briefly: Inhibition of TMA production in whole cells (LC-MS/MS assay for choline TMA-lyase activity, d9-TMA from d9-choline). Type of assay: cell-based.
The target in the next assay is CutC (Oleidesulfovibrio alaskensis, UniProt Q30W70). Nature of the assay: biochemical. The format is biochemical.
Setting [1] is: Table 3, TMA generation, 1 mM choline-d9, anaerobic, 3.5 h, 37° C., read-out: EC50 against E. coli MS200-1.
The mark [2] stands for this setting: Escherichia coli, MS2001, Table 3, TMA generation, 1 mM choline-d9, anaerobic, 3.5 h, 37° C., read-out: EC50 against E. coli MS200-1.
[3] abbreviates: Escherichia coli, MS2001, Table 2, inhibition of TMA-d9 production, 1 mM choline-d9, anaerobic, 3.5 hrs, 37° C., read-out: EC50.
[4] abbreviates: Escherichia coli, MS2001, 3.5 h, read-out: EC50 against E. coli MS200-1.
Where [5] appears, read: Table 2, inhibition of TMA-d9 production, 1 mM choline-d9, anaerobic, 3.5 hrs, 37° C., read-out: EC50.
[6] abbreviates: Escherichia coli, MS2001, 3.5 h.

Sequence of CutC (Q30W70 whole entry): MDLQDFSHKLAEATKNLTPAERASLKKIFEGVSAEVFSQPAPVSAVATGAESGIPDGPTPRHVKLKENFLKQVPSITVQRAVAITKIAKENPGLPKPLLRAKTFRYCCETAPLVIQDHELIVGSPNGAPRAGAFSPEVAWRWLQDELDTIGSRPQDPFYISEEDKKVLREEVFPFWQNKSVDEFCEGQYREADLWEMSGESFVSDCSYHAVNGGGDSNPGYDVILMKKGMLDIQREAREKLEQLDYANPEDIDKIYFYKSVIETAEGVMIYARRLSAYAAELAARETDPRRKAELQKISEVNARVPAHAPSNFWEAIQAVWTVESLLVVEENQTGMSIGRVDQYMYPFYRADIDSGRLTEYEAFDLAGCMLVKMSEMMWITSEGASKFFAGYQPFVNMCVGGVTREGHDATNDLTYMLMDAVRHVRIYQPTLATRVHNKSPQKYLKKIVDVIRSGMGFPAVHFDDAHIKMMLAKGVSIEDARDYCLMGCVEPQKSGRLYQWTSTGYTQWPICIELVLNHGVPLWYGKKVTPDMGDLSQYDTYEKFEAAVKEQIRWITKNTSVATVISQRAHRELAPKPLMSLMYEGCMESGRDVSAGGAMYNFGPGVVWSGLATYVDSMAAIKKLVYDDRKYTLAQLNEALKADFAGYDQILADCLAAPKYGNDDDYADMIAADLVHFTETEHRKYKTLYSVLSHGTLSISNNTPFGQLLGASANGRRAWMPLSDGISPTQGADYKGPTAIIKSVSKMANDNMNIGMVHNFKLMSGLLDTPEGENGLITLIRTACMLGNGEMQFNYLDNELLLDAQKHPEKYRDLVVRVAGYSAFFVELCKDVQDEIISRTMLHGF

For orientation: EC50 means the concentration giving half of the maximal effect. Consider `CN1CC=C[C@@H](O)C1` [drawing 113], for which the concentration giving a half-maximal response (EC50) in the assay on E. coli MS 200-1 (setting [1]) was found to be 31 µM.

Take `CN1CC=C[C@H](O)C1` [drawing 112]: the EC50 in the assay on E. coli MS 200-1 (setting [1]) is 10 µM. As to `O[C@@H]1C=CCN(C2CCC2)C1`, the EC50 in the assay on E. coli MS 200-1 (setting [2]) was 193 µM. On the same count and under the same terms, the result for `CN1CCC(O)C1` (stereo not drawn) [drawing 102] reads 6300 µM; that for `CN1CCC[C@@H]1CO` [drawing 172], 1820 µM. As for `C[N+]1(C)CC[C@@H](O)C1`, in the assay on E. coli MS 200-1 (setting [2]), the EC50 was determined as 2100 µM.

In the case of `O[C@@H]1C=CCN(CC2CC2)C1`, the EC50 in the assay on E. coli MS 200-1 (setting [2]) is 151 µM. In the case of `CN1CCC(O)C1` (stereo not drawn) [Compound 14], the concentration giving a half-maximal response (EC50) in the assay on E. coli MS 200-1 (setting [3]) stood at 6300 µM. On the same count and under the same terms, the result for `CC1CCCCC1N1CC=C[C@@H](O)C1` (stereo partly drawn) [Compound 9] reads 68 µM.

For the compound `CN1CCCC1CO` (stereo not drawn) [drawing 170], the EC50 in the assay on E. coli MS 200-1 (setting [2]) stood at 298 µM. The same measure, in the same setting: then `C=CC(O)CN(C)C` (stereo not drawn) [drawing 174], with 70 µM. On to `OC1C=CCCC1` (stereo not drawn) [drawing 162], for which the EC50 in the assay on E. coli MS 200-1 (setting [4]) was 259 µM.

For the compound `OC1C=CCN(C2CCCCC2F)C1` (stereo not drawn), the half-maximal effective concentration (EC50) in the assay with E. coli MS 200-1 (setting [2]) was 12 µM.

Regarding `O[C@@H]1C=CCOC1`, the EC50 with E. coli MS 200-1 (setting [2]) worked out at 84 µM. In the case of `CN1CCCC(=O)C1` [drawing 107], the EC50 in the assay with E. coli MS 200-1 (setting [1]) amounted to 27000 µM.

For `CN1CCCC(O)CC1` (stereo not drawn) [drawing 109], the EC50 in the assay with E. coli MS 200-1 (setting [4]) is 762 µM. On to `OC1C=CCN(CCc2ccccc2)C1` (stereo not drawn), for which, in the assay on E. coli MS 200-1 (setting [2]), the concentration for a half-maximal effect (EC50) was determined as 294 µM. On to `O[C@@H]1C=CCN(C2CCCCC2)C1` [Compound 7], for which the EC50 in the assay on E. coli MS 200-1 (setting [3]) is 108 µM.

For the compound `CC1CCCCC1N1CC=CC(O)C1` (stereo not drawn) [drawing 153], the EC50 with E. coli MS 200-1 (setting [2]) turned out to be 2 µM.

Consider `OC1C=CCN(C2CCCC2)C1` (stereo not drawn) [Compound 2], for which the concentration for a half-maximal effect (EC50) in the assay with E. coli MS 200-1 (setting [3]) stood at 54 µM. For the compound `O[C@H]1C=CCN(CC2CC2)C1`, the EC50 in the assay on E. coli MS 200-1 (setting [2]) turned out to be 319 µM.

For orientation: IC50 means the concentration needed to halve the response being measured. Consider `OC1C=CCOC1` (stereo not drawn) [drawing 199], for which the IC50 on CutC (read-out: IC50 CutC) is 2890 µM.

Consider `OC1C=CCCC1` (stereo not drawn) [drawing 198], for which the IC50 at CutC (read-out: IC50 CutC) was 709 µM. Turning to `OC1C=CCN(C2CCCCCC2)C1` (stereo not drawn) [Compound 4], in the assay on E. coli MS 200-1 (setting [3]), the EC50 turned out to be 24 µM. Consider `CC1CCC(N2CC=CC(O)C2)CC1` (stereo not drawn), for which the EC50 in the assay with E. coli MS 200-1 (setting [2]) came to 42 µM.

`CN1CC=CC(O)C1` (stereo not drawn) [Compound 11]: in the assay on E. coli MS 200-1 (setting [5]), the EC50 is 10 µM. Take `C[N+]1(C)CCCC(O)C1` (stereo not drawn): the EC50 in the assay on E. coli MS 200-1 (setting [2]) was greater than 30000 µM. In general, inhibition refers to the change of the read-out against control, counted positive when it falls. For `COC(=O)C1CCCC1N1CC=CC(O)C1` (stereo not drawn), 1000 µM produced 62% inhibition in the assay on E. coli MS 200-1 (Escherichia coli, MS2001, Table 3, TMA generation of E. coli MS200-1, 1 mM compound). For the compound `CC1CCC(N2CC=CC(O)C2)C1` (stereo not drawn), the 50% effective concentration (EC50) in the assay with E. coli MS 200-1 (setting [2]) was 49 µM. For the compound `CC1CCCC1N1CC=C[C@@H](O)C1` (stereo partly drawn) [drawing 145], the 50% effective concentration (EC50) in the assay with E. coli MS 200-1 (setting [4]) was 164 µM. `OC1C=CCN(CC2CCCCC2)C1` (stereo not drawn) [drawing 123]: the half-maximal effective concentration (EC50) in the assay with E. coli MS 200-1 (setting [2]) came out at 91 µM. With `CN1CCC(O)C1` (stereo not drawn) [drawing 176], the 50% inhibitory concentration (IC50) on CutC (read-out: IC50 CutC) is 844 µM. With `O[C@H]1C=CCCC1`, the EC50 with E. coli MS 200-1 (setting [4]) is 482 µM. On to `C[N+]1(C)CC=CC(O)C1` (stereo not drawn) [drawing 185], for which the concentration for half-maximal inhibition (IC50) at CutC (read-out: IC50 CutC) was determined as 7 µM. Consider `O[C@H]1C=CCN(C2CCCCC2)C1` [Compound 8], for which the EC50 in the assay with E. coli MS 200-1 (setting [3]) worked out at 14 µM. Consider `OC1C=CCOC1` (stereo not drawn) [drawing 167], for which the concentration for a half-maximal effect (EC50) in the assay on E. coli MS 200-1 (setting [2]) stood at 80 µM. For the compound `CN1CC=C[C@@H](O)C1` [Compound 13], the concentration for a half-maximal effect (EC50) with E. coli MS 200-1 (setting [5]) turned out to be 15 µM. Take `OC1C=CCN(CCCl)C1` (stereo not drawn): in the assay on E. coli MS 200-1 (setting [4]), the EC50 is 113 µM. For the compound `CC1CCCC1N1CC=CC(O)C1` (stereo not drawn) [drawing 193], at CutC, the “inhibition at 10 μM” value was “No inhibition at 10 μM”. In the case of `COc1ccc(CN2CC=CC(O)C2)cc1` (stereo not drawn), the EC50 in the assay on E. coli MS 200-1 (setting [2]) stood at 304 µM. In the assay on E. coli MS 200-1 (setting [6]), `CC1CCCC1N1CC=CC(O)C1` (stereo not drawn) [Compound 5] yielded a half-maximal effective concentration (EC50) of 15 µM. Take `O[C@H]1C=CCN(Cc2cccs2)C1`: in the assay with E. coli MS 200-1 (setting [2]), the concentration for a half-maximal effect (EC50) amounted to 191 µM. Regarding `CN1CCC[C@@H]1CO` [Compound 21], the EC50 with E. coli MS 200-1 (setting [3]) stood at 2040 µM.

As to `OC1C=CCN(C2CCSC2)C1` (stereo not drawn), in the assay with E. coli MS 200-1 (setting [2]), the EC50 amounted to 173 µM. Same read-out and setting: the result for `C[N+]1(C)CC=CC(O)C1` (stereo not drawn) [drawing 114] reads 8 µM. In turn, `OC1C=CCN(C2CCC2)C1` (stereo not drawn) [drawing 192] had an IC50 on CutC of 203 µM.

For the compound `OC1C=CCN(Cc2ccoc2)C1` (stereo not drawn), the EC50 in the assay with E. coli MS 200-1 (setting [2]) amounted to 256 µM.

Regarding `CN1CCCC(=O)C1` [Compound 16], the concentration for a half-maximal effect (EC50) with E. coli MS 200-1 (setting [5]) was determined as 9500 µM. As for `CC1CCCC1N1CC=CC(O)C1` (stereo not drawn) [drawing 143], the EC50 in the assay on E. coli MS 200-1 (setting [4]) is 15 µM. `O[C@H]1C=CCN(C2CCCC2)C1`: the EC50 in the assay with E. coli MS 200-1 (setting [2]) came out at 41 µM. On to `CC1CCCC1N1CC=C[C@H](O)C1` (stereo partly drawn) [drawing 194], for which, at CutC, the “inhibition at 10 μM” value was “No inhibition at 10 μM”.

On to `OC1C=CCN(C2CCCCCC2)C1` (stereo not drawn) [drawing 160], for which, in the assay with E. coli MS 200-1 (setting [2]), the EC50 amounted to 24 µM. Turning to `CC1CCCC1N1CC=C[C@@H](O)C1` (stereo partly drawn) [drawing 195], on CutC, the “inhibition at 10 μM” value was “No inhibition at 10 μM”.

`CC1=CC(O)CCC1` (stereo not drawn): in the assay on E. coli MS 200-1 (setting [2]), the EC50 was 14100 µM. Take `CC(C)N1CC=CC(O)C1` (stereo not drawn) [drawing 136]: in the assay with E. coli MS 200-1 (Escherichia coli, MS2001, Table 3, TMA generation of E. coli MS200-1, 3 mM compound), at 3000 µM the inhibition was 83%. The compound `OC1C=CCN(C2CCCCC2)C1` (stereo not drawn) [drawing 196] displayed an IC50 at CutC of 63 µM. In the assay on E. coli MS 200-1 (setting [6]), `CN1CCCC(O)CC1` (stereo not drawn) [Compound 24] had an EC50 of 760 µM.
